These results are taken from patent US20230173083A1, “ALBUMIN-BINDING PRODRUG FOR PREVENTING OR TREATING CANCER AND PHARMACEUTICAL COMPOSITION INCLUDING THE SAME” (KOREA INSTITUTE OF SCIENCE AND TECHNOLOGY, priority 2021, published 2023).

Series [1] addresses HSA (Homo sapiens, UniProt P02768). Nature of the series: Formation of albumin-prodrug conjugate with HSA (SDS-PAGE, MALDI-TOF, RP-HPLC). It counts as binding. To be noted: for formation of conjugate with HSA (SDS-PAGE band shift to 50-75 kDa): 1% HSA in PBS. The protocol:
(§1) To this end, a PBS solution (1 ml) containing 1% albumin (HSA, MSA or BSA) or 1% blocked albumin (blocked HSA, MSA or BSA) was added to 1 mg of the prodrug (Al-ProD) synthesized in Example 1 and incubated at room temperature for various times (0 h, 5 min, and 1 h). After completion of the incubation, samples were analyzed via SDS-PAGE and MALDI-TOF mass spectrometry.
(§2) τ-maleimido butyric acid was added to 1% albumin (HSA, MSA or BSA) for 1 h to block the thiol group of the albumin. In the “Blocking” row in the table of FIG. 5, the plus signs (+) represent the use of blocked albumin.

Series [2] deals with BSA (Bos taurus, UniProt P02769). Description: Formation of albumin-prodrug conjugate with BSA (SDS-PAGE). The series is classed as binding, bovine. To be noted: 1 h; for formation of conjugate with BSA (SDS-PAGE band shift to 50-75 kDa): 1% BSA in PBS, room temperature. The protocol:
as §1, §2

Series [3] deals with MSA (Mus musculus, UniProt P07724). Nature of the series: Formation of albumin-prodrug conjugate with MSA (SDS-PAGE). It counts as binding. To be noted: 1 h; for formation of conjugate with MSA (SDS-PAGE band shift to 50-75 kDa): 1% MSA in PBS, room temperature. The protocol:
as §1, §2

The subject of series [4] is MDA-MB-231 cancer tissues. Nature of the series: Anticancer efficacy in MDA-MB-231 cancer animal models. The series is classed as in vivo, BALB/c nude mice. The following applies: for survival / cancer volume: equimolar to 3 mg/kg doxorubicin, tail vein; for cancer volume: FIG. 21, day not given. The protocol: (§3) Specifically, all animal experiments were conducted in accordance with the guidelines approved by the Institutional Animal Care and Use Committee of Korea Institute of Science and Technology (KIST). BALB/c nude mice (5.5 weeks old, 20-25 g, male) purchased from Nara Bio INC (Gyeonggi-do, Korea) were used as animal models. 1×10^7 MDA-MB-231 cells were inoculated into the left thigh of each of the mice (n=6) to construct establish a cancer animal model. 5 weeks after inoculation, experiments were conducted when cancer volumes were 250-300 mm^3.
(§4) Changes in body weight and cancer tissue volume of each group were measured and survivals were analyzed every two days from immediately after injection (day 0). The cancer tissue volume (V; mm^3) was calculated as 0.53 × largest diameter × (smallest diameter)^2. After 20 days, each group was euthanized. Major organs (liver, lung, spleen, kidney, and heart) and cancer tissues were excised and sliced into 10 µm thick sections for histological assays.
(§5) Specifically, the tissues were fixed with 10% formalin, embedded in paraffin, and sectioned to a thickness of 10 µm. The tissue sections were stained with H&E, terminal deoxynucleotidyl transferase dUTP nick-end labeling (TUNEL), and 4,6-diamidino-2-phenylindole (DAPI, Sigma-Aldrich). Structural changes and toxicities in the tissue sections were evaluated using a ZEISS light microscope or fluorescence microscope.
(§6) Significance was indicated by *P < 0.05, **P < 0.01, ***P < 0.001.

Series [5] is described as follows: FIG. 16. An excerpt:
Table printed on a drawing sheet, FIG. 16
First reader's note: The table stands beside a plasma concentration (%) versus time plot; the AUC cells hold the value ± its error and no AUC unit is printed.

Series [6] has as its system MDA-MB-231 cancer tissues. Nature of the series: Tumor accumulation by NIRF imaging and CLSM in cancer animal models. The series is classed as in vivo, BALB/c nude mice. The protocol:
(§7) All animal experiments were conducted in accordance with the guidelines approved by the Institutional Animal Care and Use Committee of Korea Institute of Science and Technology (KIST). BALB/c nude mice (5.5 weeks old, 20-25 g, male) purchased from Nara Bio INC (Gyeonggi-do, Korea) were used as animal models. 1×10^7 MDA-MB-231 cells were inoculated into the left thigh of each of the mice (n=6) to construct establish a cancer animal model. 5 weeks after inoculation, experiments were conducted when cancer volumes were 250-300 mm^3.
(§8) After administration of the drugs, noninvasive near-infrared fluorescence (NIRF) imaging data were obtained using an in vivo fluorescence imaging system (IVIS Luminar III) to assess the in vivo tumor accumulation of the prodrug (Al-ProD). The areas under the curves of the time-concentration curves (AUCs) corresponding to the near-infrared data were calculated using Origin 2020 software.
Animal models were sacrificed 12 h after injection of the drugs and organs (liver, lung, spleen, kidney, and heart) and cancer tissues were excised therefrom. The amounts of the drugs remaining in the major organs and cancer tissues were calculated via fluorescence imaging using IVIS Luminar III. The fluorescence intensities were quantified using the Living Image software (PerkinElmer, USA) and plotted.
The organs and cancer tissues excised from the animal models were sliced into 10 µm thick sections and treated with DAPI solution for 10 min to stain the cell nuclei blue. The fluorescence of DOX or DAPI from the sections was observed using a confocal laser scanning microscope (CLSM).
as §6

Series [7] in a line: Toxicity (body weight, organ histology) in cancer animal models. It counts as in vivo, BALB/c nude mice. The protocol:
as §3, §4, §5, §6

The nature of series [8]: Pharmacokinetics after intravenous administration to cancer animal models. The series is classed as in vivo, BALB/c nude mice. The protocol: as §7, §8, §6
For series [9], the system named is breast cancer cells (MDA-MB-231). Nature of the series: Cytotoxicity (CCK-8) in breast cancer cells. It counts as cell-based. The following applies: MDA-MB231 cells, 48 h. The protocol:
(§9) An in vitro cell experiment was conducted using breast cancer cells (MDA-MB-231) and rat cardiomyocytes (H9C2) to determine the cancer cell-specific cytotoxicity of the albumin-prodrug conjugate (Al-ProD+HSA). Specifically, cells were cultured and maintained in Dulbecco’s modified Eagle’s medium (DMEM) supplemented with 10% fetal bovine serum (FBS) and 1% penicillin/streptomycin in a humid atmosphere at 5% CO2 and 95% air and at 37° C. […]
(§10) Cancer cells (breast cancer cells (MDA-MB-231)) or normal cells (H9C2) were seeded at a density of 2×10^4/well in 96-well cell culture plates. […] Then, each well was treated with […] of CCK solution, followed by incubation for 30 min. The absorbance of each 96-well plate was analyzed using a microplate reader (VERSAmax™, Molecular Devices Corp., Sunnyvale, CA) at 450 nm.

For series [10], the system named is rat cardiomyocytes (H9C2). Description: Intracellular behavior of DOX by CLSM in normal cells. To be noted: H9C2, 2 µM, 48 h. It counts as cell-based. The protocol:
(§11) 2×10^4 cancer cells (breast cancer cells (MDA-MB-231)) and normal cells (H9C2) were seeded in cell culture plates for confocal microscopy. As a control, MDA-MB-231 cells were treated and incubated with Cat-B-inhibitory siRNA for 24 h to inhibit the expression of cathepsin B (“MDA-MB-231 (+Cat-B inhibitor)”). […] Then, cells were washed with Dulbecco’s phosphate buffered saline (DPBS) to remove residual drug. Cells were treated with a cell fixative for 15 min and nuclei were stained blue by treatment with a DAPI solution for 10 min.

Series [11] has as its system rat cardiomyocytes (H9C2). Nature of the series: Cytotoxicity (CCK-8) in normal cells. The series is classed as cell-based. To be noted: 48 h. The protocol: as §9, §10
Series [12] has as its system breast cancer cells (MDA-MB-231). Description: Intracellular behavior of DOX by CLSM in breast cancer cells. It counts as cell-based. To be noted: MDA-MB-231, 2 µM, 48 h. The protocol: as §11
The mark [13] stands for this setting: equimolar to 3 mg/kg doxorubicin, tail vein.

No end group written: not given here. DOX = doxorubicin

Chain of MSA (P07724 25-608): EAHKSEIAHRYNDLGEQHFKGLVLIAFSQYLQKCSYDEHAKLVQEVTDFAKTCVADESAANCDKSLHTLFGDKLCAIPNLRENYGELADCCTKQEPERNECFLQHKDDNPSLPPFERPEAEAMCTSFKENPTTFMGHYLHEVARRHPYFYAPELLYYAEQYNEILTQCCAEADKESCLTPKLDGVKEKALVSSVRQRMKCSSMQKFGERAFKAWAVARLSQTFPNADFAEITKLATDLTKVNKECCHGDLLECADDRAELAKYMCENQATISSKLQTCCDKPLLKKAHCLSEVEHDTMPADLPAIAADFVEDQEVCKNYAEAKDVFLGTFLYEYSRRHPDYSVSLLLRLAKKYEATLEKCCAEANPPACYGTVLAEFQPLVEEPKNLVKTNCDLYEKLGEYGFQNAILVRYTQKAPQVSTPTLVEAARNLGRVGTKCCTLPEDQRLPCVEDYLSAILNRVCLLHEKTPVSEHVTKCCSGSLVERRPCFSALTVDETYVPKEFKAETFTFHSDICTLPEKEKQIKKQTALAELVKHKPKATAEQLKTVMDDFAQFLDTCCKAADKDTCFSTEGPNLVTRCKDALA
Chain of BSA (P02769 25-607): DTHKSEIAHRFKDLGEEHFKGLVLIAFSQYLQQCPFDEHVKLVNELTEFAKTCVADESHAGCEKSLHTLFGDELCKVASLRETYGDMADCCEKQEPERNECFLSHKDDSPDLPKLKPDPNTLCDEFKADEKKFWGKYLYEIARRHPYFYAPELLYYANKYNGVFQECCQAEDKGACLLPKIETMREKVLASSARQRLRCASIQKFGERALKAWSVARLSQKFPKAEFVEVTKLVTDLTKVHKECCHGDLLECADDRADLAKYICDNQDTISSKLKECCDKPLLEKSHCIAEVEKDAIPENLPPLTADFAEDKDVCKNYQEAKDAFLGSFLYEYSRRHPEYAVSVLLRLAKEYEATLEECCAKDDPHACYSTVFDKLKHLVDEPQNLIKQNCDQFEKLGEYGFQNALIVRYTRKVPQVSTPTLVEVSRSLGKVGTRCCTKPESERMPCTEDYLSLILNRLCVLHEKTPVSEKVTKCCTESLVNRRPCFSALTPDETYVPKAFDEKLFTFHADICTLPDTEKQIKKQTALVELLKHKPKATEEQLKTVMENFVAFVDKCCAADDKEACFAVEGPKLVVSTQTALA

In the case of “FRRG(SEQ ID NO: 1)-DOX (FRRG-{DOX}) [reference compound]”, the “formation of conjugate with HSA (SDS-PAGE band shift to 50-75 kDa)” value in series [1] (room temperature, 1 h) is listed as “did not form conjugates with any albumin”. The “formation of conjugate with BSA (SDS-PAGE band shift to 50-75 kDa)” value in [2] is “did not form conjugates with any albumin”. Also, the “formation of conjugate with MSA (SDS-PAGE band shift to 50-75 kDa)” value in [3] is recorded as “did not form conjugates with any albumin”.

What is called half-life is how long it takes for the measured level to halve. In the case of `COc1cccc2c1C(=O)c1c(O)c3c(c(O)c1C2=O)CC(O)(C(=O)CO)CC3OC1CC(NC(=O)CNC(=O)C(CCCNC(=N)N)NC(=O)C(CCCNC(=N)N)NC(=O)C(Cc2ccccc2)NC(=O)CCOCCOCCNC(=O)CCN2C(=O)C=CC2=O)C(O)C(C)O1` (stereo not drawn) [Al-ProD], in series [4] (day 20), the “H&E and TUNEL staining of cancer tissues” value was “induced significant damage to and apoptosis of cancer tissues”. Moreover, in series [4], the survival result is reported as “over 25 days” and the cancer volume stood at 347.42 ± 25.9 mm^3. The “formation of conjugate with HSA (SDS-PAGE band shift to 50-75 kDa)” value in series [1] (room temperature, 1 h) is “formed a conjugate with each albumin”. Moreover, the “time to completion of conjugate formation with HSA” value in series [1] (RP-HPLC, room temperature) is reported as at most 5 min. Moreover, in series [1] (RP-HPLC, up to 60 min), the “conjugate formation with thiol-blocked HSA” value is recorded as “not formed for 60 min”. Also, in series [1] (thiol group of albumin blocked, 1 h), the “formation of conjugate with blocked HSA (SDS-PAGE)” value is given as “failed to form a conjugate with the blocked albumin”. Further, in [5], the “T1/2” value is 3.1 h. Besides, in series [6] (0-72 h), the “accumulation / retention in cancer tissues (NIRF imaging)” value is listed as “a considerable quantity of DOX was retained in cancer tissues even after 72 h”. In addition, in series [6] (0-72 h after intravenous administration), the “fluorescence from cancer tissues relative to free DOX group (NIRF in vivo)” value is 3.33-4.08 fold. For the same compound, the “DOX in excised cancer tissue sections (CLSM)” value in series [6] (DAPI-stained sections) is reported as “strong DOX fluorescence from cancer tissues”. Moreover, in [6] (ex vivo, 12 h after intravenous administration), the “DOX fluorescence from excised cancer tissues relative to free DOX group” value is reported as 3.41-4.92 fold. Further, in series [7] (day 20), the “H&E staining of normal tissues (heart, lung, liver, kidney, and spleen)” value is “no significant damage”. Further, the “change in body weight” value in series [7] (setting [13]) is “no significant changes”. Moreover, the “extension of in vivo half-life” value in series [8] (by binding to albumin in vivo) is given as “at least 3 times”. Besides, the “time remained in vivo” value in series [8] (setting [13]) is 50 to 150 h. Further, the half-life in series [8] (male, BALB/c nude, mouse, in vivo, 3 mg/kg, read-out: half-life (T½ (h))) was at least 3 h. For the same compound, the “extension of in vivo residence time compared to the simple anticancer drug” value in series [8] (vs free DOX) is listed as “at least 12 times”. In addition, the “increase of area under the curve (AUC) compared to free DOX” value in series [8] (vs free DOX 3 mg/kg) is recorded as 7 fold. The “formation of conjugate with BSA (SDS-PAGE band shift to 50-75 kDa)” value in series [2] was “formed a conjugate with each albumin”. Moreover, in [2] (thiol group of albumin blocked), the “formation of conjugate with blocked BSA (SDS-PAGE)” value is “failed to form a conjugate with the blocked albumin”. For the same compound, the “formation of conjugate with MSA (SDS-PAGE band shift to 50-75 kDa)” value in [3] is “formed a conjugate with each albumin”. Also, the “formation of conjugate with blocked MSA (SDS-PAGE)” value in series [3] (thiol group of albumin blocked) is listed as “failed to form a conjugate with the blocked albumin”.

Regarding `COc1cccc2c1C(=O)c1c(O)c3c(c(O)c1C2=O)C[C@@](O)(C(=O)CO)C[C@@H]3O[C@H]1C[C@H](N)[C@H](O)[C@H](C)O1` [Free DOX], in series [5], the “T1/2” value is 0.25 h.

As for `COc1cccc2c1C(=O)c1c(O)c3c(c(O)c1C2=O)C[C@@](O)(C(=O)CO)C[C@@H]3O[C@H]1C[C@H](N)[C@H](O)[C@H](C)O1` [free DOX, doxorubicin, reference compound], the “day on which more than half of the animals had died” value in series [4] (death from systemic toxicity) is 15 days. This compound registered a survival in [4] of at most 18 days. The cancer volume in [4] was 580.25 ± 139.92 mm^3. The “DOX in excised cancer tissue sections (CLSM)” value in series [6] (mouse, in vivo) is “a very small quantity”. In addition, the cytotoxicity entry in series [9] and in series [11] was “significant cytotoxicities” in each case. Also, the “intracellular location of DOX fluorescence” value in series [10] was “penetrated the nuclei of both cancer cells and normal cells”; in series [12] it was “penetrated the nuclei of both cancer cells and normal cells”. For the same compound, in series [7] (mouse, in vivo), the “H&E staining of normal tissues (heart, lung, liver, kidney, and spleen)” value is “significant structural abnormalities were observed in all tissues”.
